Assay results from patent US20080312129A1, “Use of Mas G-Protein-Coupled Receptor Agonists and Antagonists, as Apoptotic-Activity Modulators for Study, Prevention and Treatment of Diseases” (priority 2005, published 2008).

What was measured:
[1] = tested on: CHO cells transfected with the Mas receptor (CHO-Mas); assay: Western blot, phosphorylation of kinase B (Akt) in CHO-Mas cells; assay type: cell-based; settings: FIG. 10
Description: (§1) CHO cells transfected with the Mas receptor (CHO-Mas) and human endothelial cells of the thoracic aorta (HAEC) were cultured until confluence of approximately 80% and processed with a lise buffer for Western blotting. After the processing, the protein concentration was determined and the lisates were subjected to electrophoresis in polyacrylamide/SDS gel and then subjected to transfer to the nitrocellulose membrane. The membranes were incubated with specific antibodies (anti-phospho-Akt, anti-Akt, anti-phospho-eNOS and anti-β-actin). The bands were viewed after development by chemoluminescence.

C57 mice = assay: Testis histology (apoptosis) and gonadosomatic index after 14-day osmotic mini-pump infusion; assay type: in vivo, mouse; settings: 2.5 μg/h s.c. mini-pump, 14 days, n=5, FIG. 17
Description: Osmotic mini-pumps (ALZET, model 2002) containing the Mas G-protein-coupled receptor antagonist, A-779 (2.5 μg/h, 14 days, n=5) or carrier (NaCl 0.9%, 1 μl/h, 14 days, n=6) were implanted subscutaneously into the dorsal region of C57 mice under anesthesia with tribromoethanol (2.5%, 1 ml/100 g of body weight). After this period, the animals were weigh and then injected, by intraperitoneal route, with heparin at the concentration of 125 Ul/kg of body weight. After fifteen minutes, these animals were sedated with sodium thiopental (50 mg/kg of body weight) and perfused through the left ventricle. In a first step, it was carried out the washing of the vascular bed with a 0.9% saline solution, under a pressure of approximately 80 mmHg, for about 5 minutes, at room temperature. Immediately after this procedure, the animals were perfused with a 4% glutaraldehyde fixing solution in a phosphate buffer (0.05M, pH 7.2-7-4) for about 25 minutes. After this step, the testicles were removed and separated from the respective epididymis and weighed. From the testicular and body weights, one estimated the gonadosomatic index (percentage relation between the testicular weight and the body weight) for each animal. For the microscopic analyses, fragments of the testis up to about 3 mm thick were collected, which were dipped into glutaraldehyde buffered at 4% for two to four hours, at 4° C. […]

[2] = tested on: human endothelial cells of the thoracic aorta (HAEC); assay: Western blot, phosphorylation of kinase B (Akt) in HAEC; assay type: cell-based; settings: FIG. 12
Description: as §1

[3] = tested on: CHO cells transfected with the Mas receptor (CHO-Mas); assay: Western blot, phosphorylation of eNOS stimulatory site (S1177) in CHO-Mas cells; assay type: cell-based; settings: FIG. 11
Description: as §1

[4] = tested on: human endothelial cells of the thoracic aorta (HAEC); assay: Western blot, phosphorylation of eNOS stimulatory site (S1177) in HAEC; assay type: cell-based; settings: FIG. 13
Description: as §1

NAD(P)H oxidase = NAD(P)H oxidase activity in HAEC homogenate, lucigenin chemoluminescence; assay type: cell-based, human; settings: HAEC stimulated by Ang II 10^-7 M 10 min; Ang-(1-7) 10^-7 M 15 min pre-incubation; FIG. 16; direction stated only
Description: (§2) In order to quantify the activity of the NAD(P)H Oxtidase, human aorta endothelial cells (HAEC) were stimulated with angiotensin II (10^−7M) for 10 minutes. In some experiments, the cells were pre-exposed to the AT1 receptor antagonist Ibesartan (10^−5M), for 30 minutes or to Ang-(1-7) (10^−7 M) for 15 minutes. The chemoluminescence derived from lucigenin was used to determine the activity of NAD(P)H oxidase in the homogenate of the cells. In order to quantify the modulation of Ang-(1-7) in the phosphorylation of c-SRC, the HAECs were cultured until confluence of about 80% was reached and processed with lise buffer for Western blotting. After the processing, the protein concentration was determined and the lisates were subjected to gel electroforesis of polyacrylamide/SDS and then to the transfer to nitrocellulose membrane. The membranes were incubated with specific antibodies (anti-phospho-c-SRC, anti-c-SRC). The bands were visualized after development by chemoluminescency. […] In some experiments the cells were pre-incubated with Ibesartan (10^−5 M, 30 min). Data are presented with an average±EPM of 4 experiments. *p<0.05 vs control.+p<0.05 vs Ang II+Ang (1-7).

awake Wistar rats = assay: Vasodilating action of acetylcholine (blood pressure) in awake rats; assay type: in vivo, rat; settings: endovenous infusion 7.0 pmol/min, n=9, FIG. 14B
Description: Wistar rats were subjected, 24 hours before the experiments, to surgical implantation of catheters into the femoral artery (for analysis of blood pressure and heart rate), femoral vein (for injection and infusion of drugs) and left carotid artery (for injection of drugs). The records of blood pressure and heart rate were obtained through a data acquisition system connected to a microcomputer (BIOPAC System, INc.). […] In none of the groups did we observe any alterations in the baroreflex.

[5] = tested on: human aorta endothelial cells (HAEC); assay: Western blot, phosphorylation of c-SRC stimulated by Ang II in HAEC; assay type: cell-based; settings: FIG. 15, 4 experiments, b15 words it as inhibiting c-SRC
Description: as §2

Row | Substance | effect on Ang-(1-7)-stimulated phosphorylation of kinase B (Akt) [1] | gonadosomatic index (testicular weight / body weight, percentage) versus control group (C57 mice) | number of apoptosis per transverse section of testis versus control group (C57 mice) | effect on Ang-(1-7)-stimulated phosphorylation of kinase B (Akt) [2] | phosphorylation of the stimulatory site of endothelial nitric oxide synthase (S1177) [3] | phosphorylation of kinase B (Akt) [1] | phosphorylation of the stimulatory site of eNOS (S1177) [4] | activity of NAD(P)H oxidase (NAD(P)H oxidase) | effect on the vasodilating action of acetylcholine (ACh) (awake Wistar rats) | effect on phosphorylation of c-SRC stimulated by Ang II [5] | phosphorylation of kinase B (Akt) [2]
1 | Asp^1-Arg^2-Val^3-Tir^4-Lle^5-His^6-D-Ala^7 [A-779, reference compound] | blocked this effect | there was not different | larger number of apoptosis per transverse section | blocked this effect | – | – | – | – | – | – | –
2 | Angiotensin-(1-7) [Ang-(1-7)] | – | – | – | – | stimulated | stimulation | stimulated | inhibits the activity of NAD(P)H oxidase | potentiates the vasodilating action of acetylcholine | modulating effect | stimulatory effect
